From patent US20160002250A1, “POLYMORPHS AND SALTS OF A COMPOUND” (FORUM Pharmaceuticals Inc., priority 2013, published 2016)
Converted amounts (≈) assume the structure as drawn. “Also recorded” adds a separate entry of the source. Marks after values point to notes of the source that are not given here.

Legend:
[1] = Six-week stability study (elevated humidity, 60° C., room conditions); assay type: physicochemical
Protocol: The stability to elevated humidity and air oxidation was investigated for both Form 1 and Form 2 of the Free Base. Samples of both materials were stored at 40° C./75% RH, 25° C./96% RH, 60° C. in contact with air and ambient conditions (25° C. in contact with air) for six weeks, and analyses by XRPD, HPLC and ^1H-NMR (for oxidation study samples only) were carried out weekly.

[2] = Solubility in solvents, slow cooling and evaporation experiments; assay type: physicochemical; details: 50° C.
Protocol: 4-(4-(imidazo[1,2-b]pyridazin-2-ylmethoxy)phenyl)-2,2-dimethyl-5-(pyridin-4-yl)furan-3(2H)-one (Form 2 or Form 1; ca. 10 mg per experiment) was weighed into vials, and the stated solvents were added, in increasing portions at 50° C. With each addition, the vials were allowed to shake for ˜20 minutes. Any solutions observed were allowed to cool to room temperature. Those experiments that remained as solutions were pin-holed to allow the solvent to slowly evaporate. Any suspensions observed were subjected to heat/cool cycles, between room temperature and 50° C., four hours at each condition.

[3] = Thermodynamic aqueous solubility; details: for solubility thermodynamic at 24 h: 25 °C, thermodynamic from solid
Protocol: The suspension was equilibrated at 25° C. for 24 hours then the pH was measured and adjusted with either HCl or NaOH if it deviated by more than 0.3 units from the target pH. The suspension was then filtered through a glass fiber C filter. […] Different volumes of the standard, diluted and undiluted sample solutions were injected.
Analysis was performed on an Agilent HP1100 series system equipped with a diode array detector and using ChemStation software. The following buffers were prepared to carry out the solubility analyses:
pH 1.2—made up by adding 85.0 mL of 0.2M HCl(aq) to 50 mL of 0.2M KCl(aq) and making up to 200 mL. pH 4.5—made up by adding 2.99 g of NaC2H3O2.3H2O to 14.0 mL of 2N AcOH(aq) and making up to 1000 mL. pH 7.4—made up adding 39.1 mL of 0.2M NaOH(aq) to 50.0 mL of a 0.2M KH2PO4 and making up to 200 mL.

[4] = Gravimetric Vapour Sorption (GVS); assay type: physicochemical
Protocol: Sorption isotherms were obtained using a SMS DVS Intrinsic moisture sorption analyzer, controlled by DVS Intrinsic Control software v1.0.0.30. The sample temperature was maintained at 25° C. by the instrument controls. The humidity was controlled by mixing streams of dry and wet nitrogen, with a total flow rate of 200 ml/min. The relative humidity was measured by a calibrated Rotronic probe (dynamic range of 1.0-100% RH), located near the sample. The weight change, (mass relaxation) of the sample as a function of % RH was constantly monitored by the microbalance (accuracy ±0.005 mg).
Typically 5-30 mg of sample was placed in a tared mesh stainless steel basket under ambient conditions. The sample was loaded and unloaded at 40% relative humidity (RH) and 25° C. (typical room conditions). A moisture sorption isotherm was performed as outlined below in Table 4 (2 scans giving 1 complete cycle). The standard isotherm was performed at 25° C. at 10% RH intervals over a 0-90% RH range. Data analysis was undertaken in Microsoft Excel using DVS Analysis Suite. The sample was recovered after completion of the isotherm and re-analyzed by XRPD.

[5] = Storage at elevated humidity; assay type: physicochemical; details: 40° C./75% RH, one week
Protocol: Samples were place on a glass slide and sealed in an airtight plastic container, along with an open beaker of saturated aqueous salt solution, and stored at a known regulated temperature. A saturated solution of NaCl was used to obtain a relative humidity of 75% at 40° C., whilst a saturated solution of potassium nitrate was used to provide 92% RH at 25° C.

CC1(C)OC(c2ccncc2)=C(c2ccc(OCc3cn4ncccc4n3)cc2)C1=O [Form 2, 4-(4-(imidazo[1,2-b]pyridazin-2-ylmethoxy)phenyl)-2,2-dimethyl-5-(pyridin-4-yl)furan-3(2H)-one]
Purity (area %) ([1]; 25° C./96% RH, Week 1): 99.3 area % | Purity (area %) ([1]; 25° C./96% RH, Week 2): 98.9 area % | Purity (area %) ([1]; 25° C./96% RH, Week 3): 98.9 area % | Purity (area %) ([1]; 25° C./96% RH, Week 4): 98.9 area % | Purity (area %) ([1]; 25° C./96% RH, Week 5, samples run after 24 hours in solution): 98.0* area % | Purity (area %) ([1]; 25° C./96% RH, Week 6): 98.9 area % | Stability to elevated humidity and air oxidation ([1]; 40° C./75% RH, 25° C./96% RH, 60° C. and ambient conditions, six weeks, XRPD, HPLC, 1H-NMR): No significant changes; also recorded: no significant degradation | Purity (area %) ([1]; 40° C./75% RH, Week 1): 99.5 area % | Purity (area %) ([1]; 40° C./75% RH, Week 2): 99.1 area % | Purity (area %) ([1]; 40° C./75% RH, Week 3): 99.2 area % | Purity (area %) ([1]; 40° C./75% RH, Week 4): 99.1 area % | Purity (area %) ([1]; 40° C./75% RH, Week 5, samples run after 24 hours in solution): 98.8* area % | Purity (area %) ([1]; 40° C./75% RH, Week 6): 98.9 area % | Purity (area %) ([1]; 60° C., Week 1): 98.9 area % | Purity (area %) ([1]; 60° C., Week 2): 99.1 area % | 1H-NMR ([1]; 60° C., Week 4): Very weak | Purity (area %) ([1]; 60° C., Week 4): 99.0 area % | Purity (area %) ([1]; 60° C., Week 5, samples run after 24 hours in solution): 98.6* area % | Purity (area %) ([1]; 60° C., Week 6): 99.0 area % | Purity (area %) ([1]; Room conditions, Week 1): 99.2 area % | Purity (area %) ([1]; Room conditions, Week 2): 98.6 area % | Purity (area %) ([1]; Room conditions, Week 4): 98.6 area % | Purity (area %) ([1]; Room conditions, Week 5, samples run after 24 hours in solution): 98.2* area % | Purity (area %) ([1]; Room conditions, Week 6): 98.2 area % | Stability at 60° C. in contact with air ([1]; after 6 weeks, XRPD and HPLC): No significant changes by XRPD or HPLC analyses after | Stability at room conditions (25° C. in contact with air) ([1]; after 6 weeks, XRPD and HPLC): No significant changes by XRPD or HPLC analyses after | Stability at 25° C./96% RH ([1]; after 6 weeks, XRPD and purity): No significant changes by XRPD or purity after 6 weeks | Stability at 40° C./75% RH ([1]; after 6 weeks, XRPD and purity): No significant changes by XRPD or purity after 6 weeks | Stability to humidity ([1]; elevated humidity and temperature conditions, after 6 weeks): No changes observed at elevated | Solubility (volumes) ([2]; BuOAc, 50 volumes): Almost | Solubility (volumes) ([2]; BuOAc, 100 volumes): Almost | Solubility (volumes) ([2]; Ethanol, 50 volumes): Almost | Solubility (volumes) ([2]; IPA, 50 volumes): Almost | Solubility (volumes) ([2]; IPA, 100 volumes): Almost | Solubility (volumes) ([2]; IPAc, 50 volumes): Almost | Solubility (volumes) ([2]; IPAc, 100 volumes): Almost | Solubility (volumes) ([2]; MEK, 20 volumes): Almost | Solubility (volumes) ([2]; MIBK, 50 volumes): Almost | Solubility (volumes) ([2]; MIBK, 100 volumes): Almost | Solubility (volumes) ([2]; MeCN/H2O, 10 volumes): Almost | Solubility (volumes) ([2]; Methanol, 10 volumes): Almost | Solubility (volumes) ([2]; Nitromethane, 10 volumes): Almost | Solubility (volumes) ([2]; Toluene, 50 volumes): Almost | pH of saturated unfiltered solution ([3]; DI water): 7.23 | solubility thermodynamic at 24 h ([3]; deionized water, water, DI water, 24 hours): 40 µg/mL (≈ 97 µM) | thermodynamic aqueous solubility ([3]; deionized water, at pH 7.67 (Form 1), pH 7.23 (Form 2)): about 0.04 mg/ml | pH of saturated unfiltered solution ([3]; pH 1.2 buffer): 1.73 | solubility thermodynamic at 24 h ([3]; pH 1.2 buffer, pH 1.2, simulated gastric fluid, 24 hours): 37800 µg/mL (≈ 91600 µM) | pH of saturated unfiltered solution ([3]; pH 4.5 buffer): 4.65 | solubility thermodynamic at 24 h ([3]; pH 4.5 buffer, pH 4.5, aqueous buffer, 24 hours): 50 µg/mL (≈ 121 µM) | pH of saturated unfiltered solution ([3]; pH 7.4 buffer): 7.46 | Thermodynamic solubility ([3]; pH 7.4 buffer, 25° C., 24 hours): 40 µg/mL

CC1(C)OC(c2ccncc2)=C(c2ccc(OCc3cn4ncccc4n3)cc2)C1=O.Cc1ccc(S(=O)(=O)O)cc1.Cc1ccc(S(=O)(=O)O)cc1 [bis-tosylate]
Form change by XRPD during GVS ([4]; RH 0% to 90%): no accompanying form change | GVS water uptake (% of mass) ([4]; RH from 0% to 90%, 25° C.): 3.1% | Form change on storage [5]: no form change | Solubility (mg mL free form equivalent) ([3]; pH point 1.2): 32.29 mg mL free form equivalent | pH of unfiltered saturated solution ([3]; pH point 1.2): 1.21 | Solubility (mg mL free form equivalent) ([3]; pH point 4.5): 0.05 mg mL free form equivalent | pH of unfiltered saturated solution ([3]; pH point 4.5): 4.52 | Solubility (mg mL free form equivalent) ([3]; pH point 7.4): 0.05 mg mL free form equivalent | pH of unfiltered saturated solution ([3]; pH point 7.4): 7.40 | Solubility (mg mL free form equivalent) ([3]; pH point unadjusted aqueous): 29.07 mg mL free form equivalent | pH of unfiltered saturated solution ([3]; pH point unadjusted aqueous): 2.00
